# Results: patent US10829481B2, “Benzimidazole derivatives as modulators of ROR-gamma” (Vitae Pharmaceuticals, LLC, priority 2016, dated 2020)
# Columns and labels:
# [1] = target: recombinant RORγ Ligand Binding Domain (LBD) protein (Homo sapiens (Human), UniProt P51449); assay: Radio-Ligand RORγ Binding Assay (Assay 1); conditions: competition with 25-hydroxy [26,27-3H]-cholesterol, SPA
# How it was run: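 His-GST-fused RORγ ligand-binding domain (24 nM solution) competed between compounds and tritiated 25-hydroxycholesterol (8.6 nM solution), read by SPA after brief rt incubations in pH 7.4 HEPES/glycerol/detergent buffer. Four-parameter curve fitting gave IC50 at inflection, converted to Ki using radioligand concentration and KD.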
# [2] = target: full-length RORγt in Jurkat cells (Homo sapiens (Human), UniProt P51449); assay: RORγt 5×RORE Assay in Jurkat Cells (Assay 2); format: cell-based; conditions: 5×RORE Nanoluc luciferase reporter
# full-length RORγt in Jurkat cells, sequence (P51449 other isoform, or with tags, fused parts or gaps): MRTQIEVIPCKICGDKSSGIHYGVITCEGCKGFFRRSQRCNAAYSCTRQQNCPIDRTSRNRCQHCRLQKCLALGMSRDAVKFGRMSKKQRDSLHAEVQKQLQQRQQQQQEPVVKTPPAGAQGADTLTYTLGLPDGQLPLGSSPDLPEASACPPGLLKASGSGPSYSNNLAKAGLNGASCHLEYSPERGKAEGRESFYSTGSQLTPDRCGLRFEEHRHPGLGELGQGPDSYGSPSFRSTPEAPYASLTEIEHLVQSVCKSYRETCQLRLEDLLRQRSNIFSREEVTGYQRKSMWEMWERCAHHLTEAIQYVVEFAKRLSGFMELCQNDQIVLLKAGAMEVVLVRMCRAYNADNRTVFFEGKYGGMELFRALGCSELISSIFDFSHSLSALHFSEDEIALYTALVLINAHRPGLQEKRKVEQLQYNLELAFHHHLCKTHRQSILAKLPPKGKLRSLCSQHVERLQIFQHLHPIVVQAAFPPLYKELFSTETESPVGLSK
# recombinant RORγ Ligand Binding Domain (LBD) protein, sequence (P51449 269-508): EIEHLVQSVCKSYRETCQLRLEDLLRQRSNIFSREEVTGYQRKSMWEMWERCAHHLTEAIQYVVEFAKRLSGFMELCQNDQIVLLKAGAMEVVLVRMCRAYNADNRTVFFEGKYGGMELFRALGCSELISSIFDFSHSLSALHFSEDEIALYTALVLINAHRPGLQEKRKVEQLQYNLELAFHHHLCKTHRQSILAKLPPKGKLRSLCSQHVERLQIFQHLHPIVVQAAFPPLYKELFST
Ki [1] [nM],IC50 [2] [nM],Molecule
< 100,< 100,"CS(=O)(=O)c1ccc([C@H](CO)NC(=O)c2ccc3c(c2)nc(C2(F)CC2)n3Cc2cccc3c2OC(F)(F)O3)cc1 [I-24, (R)-1-((2,2-difluorobenzo[d][1,3]dioxol-4-yl)methyl)-2-(1-fluorocyclopropyl)-N-(2-hydroxy-1-(4-(methylsulfonyl)phenyl)ethyl)-1H-benzo[d]imidazole-5-carboxamide]"
< 100,< 100,"CCS(=O)(=O)c1ccc(CNC(=O)c2ccc3c(c2)nc(C(F)(F)F)n3Cc2cccc3c2OCO3)cc1 [I-98, 1-(benzo[d][1,3]dioxol-4-ylmethyl)-N-(4-(ethylsulfonyl)benzyl)-2-(trifluoromethyl)-1H-benzo[d]imidazole-5-carboxamide]"
< 100,< 100,"CCS(=O)(=O)c1ccc(CNC(=O)c2ccc3c(c2)nc(C(C)(C)C)n3Cc2cccc3c2OC(F)(F)O3)cc1 [I-30, 2-(tert-butyl)-1-((2,2-difluorobenzo[d][1,3]dioxol-4-yl)methyl)-N-(4-(ethylsulfonyl)benzyl)-1H-benzo[d]imidazole-5-carboxamide]"
< 100,< 100,"O=C(NCc1ccc(S(=O)(=O)CCO)cc1)c1ccc2c(c1)nc(C(F)(F)F)n2Cc1cccc2c1OC(F)(F)O2 [I-45, 1-((2,2-difluorobenzo[d][1,3]dioxol-4-yl)methyl)-N-(4-((2-hydroxyethyl)sulfonyl)benzyl)-2-(trifluoromethyl)-1H-benzo[d]imidazole-5-carboxamide]"
< 100,> 1000,"CCS(=O)(=O)c1ccc(CNC(=O)c2ccc3c(c2)nc(C(F)(F)F)n3Cc2cc(OC)cc(OC)c2)cc1 [I-82, 1-(3,5-dimethoxybenzyl)-N-(4-(ethylsulfonyl)benzyl)-2-(trifluoromethyl)-1H-benzo[d]imidazole-5-carboxamide]"
< 100,100 to 1000,"CCS(=O)(=O)c1ccc([C@@H](CO)NC(=O)c2ccc3c(c2)nc(C(F)F)n3Cc2cccc3c2OC(F)(F)O3)nc1 [I-131.2, (S)-1-((2,2-difluorobenzo[d][1,3]dioxol-4-yl)methyl)-2-(difluoromethyl)-N-(1-(5-(ethylsulfonyl)pyridin-2-yl)-2-hydroxyethyl)-1H-benzo[d]imidazole-5-carboxamide]"
< 100,< 100,"NC(=O)CS(=O)(=O)N1CCC(CNC(=O)c2ccc3c(c2)nc(C(F)(F)F)n3Cc2cccc3c2OC(F)(F)O3)CC1 [I-78, N-((1-((2-amino-2-oxoethyl)sulfonyl)piperidin-4-yl)methyl)-1-((2,2-difluorobenzo[d][1,3]dioxol-4-yl)methyl)-2-(trifluoromethyl)-1H-benzo[d]imidazole-5-carboxamide]"
< 100,< 100,"COCCS(=O)(=O)c1ccc(CC(=O)Nc2ccc3c(c2)nc(C(F)(F)F)n3Cc2cccc3c2OC(F)(F)O3)cc1 [I-4, N-(1-((2,2-difluorobenzo[d][1,3]dioxol-4-yl)methyl)-2-(trifluoromethyl)-1H-benzo[d]imidazol-5-yl)-2-(4-((2-methoxyethyl)sulfonyl)phenyl)acetamide]"
< 100,> 1000,"CCS(=O)(=O)c1ccc(CNC(=O)c2ccc3c(c2)nc(C(F)(F)F)n3CC2CCN(c3ncc(F)cn3)CC2)cc1 [I-158, N-(4-(ethylsulfonyl)benzyl)-1-((1-(5-fluoropyrimidin-2-yl)piperidin-4-yl)methyl)-2-(trifluoromethyl)-1H-benzo[d]imidazole-5-carboxamide]"
< 100,< 100,"CS(=O)(=O)c1ccc(CNC(=O)c2ccc3c(c2)nc(C2CC2)n3Cc2cccc3c2OC(F)(F)O3)cc1 [I-34, 2-cyclopropyl-1-((2,2-difluorobenzo[d][1,3]dioxol-4-yl)methyl)-N-(4-(methylsulfonyl)benzyl)-1H-benzo[d]imidazole-5-carboxamide]"
< 100,< 100,"CCS(=O)(=O)c1ccc(CNC(=O)c2ccc3c(c2)nc(C2(F)CCC2)n3Cc2cccc3c2OC(F)(F)O3)cc1 [I-43, 1-((2,2-difluorobenzo[d][1,3]dioxol-4-yl)methyl)-N-(4-(ethylsulfonyl)benzyl)-2-(1-fluorocyclobutyl)-1H-benzo[d]imidazole-5-carboxamide]"
< 100,< 100,"CCS(=O)(=O)c1ccc(CNC(=O)c2ccc3c(c2)nc(C2CC2)n3Cc2cccc3c2OC(F)(F)O3)nc1 [I-64, 2-cyclopropyl-1-((2,2-difluorobenzo[d][1,3]dioxol-4-yl)methyl)-N-((5-(ethylsulfonyl)pyridin-2-yl)methyl)-1H-benzo[d]imidazole-5-carboxamide]"
< 100,> 1000,"CCS(=O)(=O)c1ccc(CNC(=O)c2ccc3c(c2)nc(C2CC2)n3Cc2cccc3c2OCCO3)cc1 [I-148, 2-cyclopropyl-1-((2,3-dihydrobenzo[b][1,4]dioxin-5-yl)methyl)-N-(4-(ethylsulfonyl)benzyl)-1H-benzo[d]imidazole-5-carboxamide]"
< 100,100 to 1000,"CS(=O)(=O)c1ccc([C@@H](CO)NC(=O)c2ccc3c(c2)nc(C(F)F)n3Cc2cccc3c2OC(F)(F)O3)cc1 [I-23.2, (S)-1-((2,2-difluorobenzo[d][1,3]dioxol-4-yl)methyl)-2-(difluoromethyl)-N-(2-hydroxy-1-(4-(methylsulfonyl)phenyl)ethyl)-1H-benzo[d]imidazole-5-carboxamide]"
< 100,< 100,"CCS(=O)(=O)c1ccc([C@H](CO)NC(=O)c2ccc3c(c2)nc(C2CC2)n3Cc2cccc3c2OC(F)(F)O3)nc1 [I-133.1, (R)-2-cyclopropyl-1-((2,2-difluorobenzo[d][1,3]dioxol-4-yl)methyl)-N-(1-(5-(ethylsulfonyl)pyridin-2-yl)-2-hydroxyethyl)-1H-benzo[d]imidazole-5-carboxamide]"
< 100,< 100,"CCS(=O)(=O)c1ccc([C@H](CO)NC(=O)c2ccc3c(c2)nc(C(F)F)n3Cc2cccc3c2OC(F)(F)O3)nc1 [I-131.1, (R)-1-((2,2-difluorobenzo[d][1,3]dioxol-4-yl)methyl)-2-(difluoromethyl)-N-(1-(5-(ethylsulfonyl)pyridin-2-yl)-2-hydroxyethyl)-1H-benzo[d]imidazole-5-carboxamide]"

Molecule,Ki [1] [nM],IC50 [2] [nM]
"1-((2,2-difluorobenzo[d][1,3]dioxol-4-yl)methyl)-2-(difluoromethyl)-N-(4-((2-hydroxyethyl)sulfonyl)benzyl)-1H-benzo[d]imidazole-5-carboxamide [I-44]",< 100,< 100
"CCS(=O)(=O)c1ccc(CNC(=O)c2ccc3c(c2)nc([C@@H](C)OC)n3Cc2cccc3c2OC(F)(F)O3)cc1 (mixture of isomers) [I-49.2, (S)-1-((2,2-difluorobenzo[d][1,3]dioxol-4-yl)methyl)-N-(4-(ethylsulfonyl)benzyl)-2-(1-methoxyethyl)-1H-benzo[d]imidazole-5-carboxamide and (R)-1-((2,2-difluorobenzo[d][1,3]dioxol-4-yl)methyl)-N-(4-(ethylsulfonyl)benzyl)-2-(1-methoxyethyl)-1H-benzo[d]imidazole-5-carboxamide]",< 100,< 100
